Test system: 388556-164-R-J1-PDC complex spheroid viability
Test: Anticancer human tumor 388556-164-R-J1-PDC patient-derived colon adenocarcinoma cell line growth inhibition [RAS]
Details: for IC50: curve of first compound; for viability, T/C: stronger effect = lower value
Text: RAS pathway inhibitors in Combinations in Complex Spheroids
A high-throughput screen of multi-cell type tumor spheroids was designed to identify active combinations of RAS pathway inhibitors and targeted small molecules. Complex spheroids include a stromal component modeled by human endothelial cells (HUVEC) and fibroblasts modeled by human mesenchymal stem cells (MSCs). The concentration ranges selected for each drug and investigational agent were based upon clinically achievable concentrations if the clinical Cmax of the agent was known.
Compounds. The drugs and investigational agents: abemaciclib (NSC768073), cobimetinib (NSC768068), divarasib (GDC6063, NSC841802), docetaxel (NSC628503), GDC-1971 (RLY-1971, NSC841576), gemcitabine (NSC613327), inavolisib (NSC800729), ipatasertib (NSC767898), KB-0742 (NSC834161), MRTX-1133 (NSC836407), osimertinib (NSC779217), RMC-4630 (NSC839698), RMC-6236 (NSC851965), RMC-6291 (NSC852671), Ro-3306 (NSC812927), sapanisertib (NSC764658), SN-38 (NSC673596), staurosporine (NSC755774), SY5609 (NSC837396), and tovorafenib (DAY101, NSC766906), were obtained from the National Cancer Institute (NCI) Developmental Therapeutics Program Chemical Repository. The FDA-approved anticancer drug set is available from the NCI Developmental Therapeutics Program. […] The stock solutions were prepared in dimethyl sulfoxide (DMSO, Sigma-Aldrich, St. Louis, MO, cat. D2650) at 800-fold the tested concentration and stored at -70 degrees C prior to their use. All drugs and investigational agents were tested over a range starting from a high concentration at or near the clinical Cmax and decreasing in half-log increments. If the clinical Cmax for an agent had not been determined, the highest concentration tested was 10 microM.
Cell Culture. All cells were maintained in an incubator at 37 degrees C and 5% CO2 with 95% humidity. The PDC lines were cultured according to standard operating procedures established by the NCI PDMR. All PDCs were thawed and cultured in Matrigel-coated flasks prepared with a working solution of 1X Ham's F-12 nutrient mix, without supplementation (Invitrogen, Waltham, MA, cat. 11765054), 100 U/mL penicillin-streptomycin (Invitrogen, cat. 15140122), and 2.5% Matrigel (Corning Inc., Corning, NY, cat. 354248) for the first three passages. The 362531-283-R-J2-PDC and 782815-120-R-J1-PDC lines were cultured in 6C/Colon 1B media, which includes advanced DMEM/F-12 (Thermo Fisher Scientific, cat. 12634028), 10 mM HEPES (Thermo Fisher Scientific, cat. 15630080), 1X GlutaMAX supplement (Thermo Fisher Scientific, cat. 35050061), 0.1 mg/mL primocin (InvivoGen, San Diego, CA, cat. ant-pm-2), 10% defined fetal bovine serum, heat inactivated (HyClone Laboratories Inc., Logan, UT, cat. SH30070.03HI), 50% L-WRN conditioned media (ATCC, cat. CRL-3276), 1.25 mM N-Acetyl-L-cysteine (Sigma-Aldrich, cat. A9165), 10 mM nicotinamide (Sigma-Aldrich, cat. N0636), 1X B-27 supplement (Thermo Fisher Scientific, cat. 17504044), 1X N-2 supplement (Thermo Fisher Scientific, cat. 17502048), 50 ng/mL human EGF (Thermo Fisher Scientific, cat. PHG0311), and 10 microM Y-27632 dihydrochloride (Tocris Bioscience, cat. 1254). The K12877-001-R-J1-PDC line was cultured in 6I media, which includes all 6C/Colon 1B media plus 10 ng/mL human FGF-10 (PeproTech, cat. 100-26), 1 ng/mL human FGF-2 (PeproTech, cat. 100-18B), 1 µM prostaglandin E2 (Tocris Bioscience, cat. 2296), […] hydrocortisone (Sigma-Aldrich, cat. H4001), and […] bovine insulin (Sigma-Aldrich, cat. I6634). The K86415-001-R-J1-PDC line was cultured in 6D media, which includes all 6C/Colon 1B media components minus the L-WRN conditioned media. The 485176-168-R4-J1-PDC was cultured in PANC media, which includes all 6C/Colon 1B media plus 100 ng/mL human FGF-10 (PeproTech, cat. 100-26), 500 nM SB-431542 (Selleckchem, cat. S1067), and 10 nM gastrin (Tocris Bioscience, cat. 3006). […]

[1] = second compound 0.0316 µM, first compound 0.0316 µM
[2] = second compound 0.0316 µM, first compound 0.1 µM
[3] = second compound 0.0316 µM, first compound 0.316 µM
[4] = second compound 0.0316 µM, first compound 1 µM
[5] = second compound 0.0316 µM, first compound 3.16 µM
[6] = second compound 0.0316 µM, first compound 10 µM
[7] = second compound 0.1 µM, first compound 0.0316 µM
[8] = second compound 0.1 µM, first compound 0.1 µM
[9] = second compound 0.1 µM, first compound 0.316 µM
[10] = second compound 0.1 µM, first compound 1 µM
[11] = second compound 0.1 µM, first compound 3.16 µM
[12] = second compound 0.1 µM, first compound 10 µM
[13] = second compound 0.316 µM, first compound 0.0316 µM
[14] = second compound 0.316 µM, first compound 0.1 µM
[15] = second compound 0.316 µM, first compound 0.316 µM
[16] = second compound 0.316 µM, first compound 1 µM
[17] = second compound 0.316 µM, first compound 3.16 µM
[18] = second compound 0.316 µM, first compound 10 µM
[19] = second compound 1 µM, first compound 0.0316 µM
[20] = second compound 1 µM, first compound 0.1 µM
[21] = second compound 1 µM, first compound 0.316 µM
[22] = second compound 1 µM, first compound 1 µM
[23] = second compound 1 µM, first compound 3.16 µM
[24] = second compound 1 µM, first compound 10 µM
[25] = second compound 3.16 µM, first compound 0.0316 µM
[26] = second compound 3.16 µM, first compound 0.1 µM
[27] = second compound 3.16 µM, first compound 0.316 µM
[28] = second compound 3.16 µM, first compound 1 µM
[29] = second compound 3.16 µM, first compound 3.16 µM
[30] = second compound 3.16 µM, first compound 10 µM
[31] = second compound 10 µM, first compound 0.0316 µM
[32] = second compound 10 µM, first compound 0.1 µM
[33] = second compound 10 µM, first compound 0.316 µM
[34] = second compound 10 µM, first compound 1 µM
[35] = second compound 10 µM, first compound 3.16 µM
[36] = second compound 10 µM, first compound 10 µM
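Note: spheroids exposed to compound for 7 days before readout.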
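Throughout, for viability, T/C: 100% = DMSO vehicle control luminescence.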

SMILES: CCC(CC)c1cc(NC2CCC(N)C2)n2nccc2n1 (stereo unspecified) + C#Cc1c(F)ccc2cc(O)cc(-c3ncc4c(N5CC6CCC(C5)N6)nc(OCC56CCCN5CC(F)C6)nc4c3F)c12
- IC50 (second compound 0.0316 µM): 3290 nM
- IC50 (second compound 0.1 µM): 2310 nM
- IC50 (second compound 0.316 µM): 2580 nM
- IC50 (second compound 1 µM): 2490 nM
- IC50 (second compound 3.16 µM): 1930 nM
- IC50 (second compound 10 µM): 1320 nM
- viability, T/C [1]: 98.2%
- viability, T/C [2]: 97.2%
- viability, T/C [3]: 109%
- viability, T/C [4]: 101%
- viability, T/C [5]: 50.7%
- viability, T/C [6]: 32.1%
- viability, T/C [7]: 98.2%
- viability, T/C [8]: 99.1%
- viability, T/C [9]: 102%
- viability, T/C [10]: 94.7%
- viability, T/C [11]: 33.4%
- viability, T/C [12]: 30.8%
- viability, T/C [13]: 102%
- viability, T/C [14]: 98%
- viability, T/C [15]: 83.1%
- viability, T/C [16]: 96.7%
- viability, T/C [17]: 40.3%
- viability, T/C [18]: 27.3%
- viability, T/C [19]: 82.5%
- viability, T/C [20]: 83.3%
- viability, T/C [21]: 68.8%
- viability, T/C [22]: 86.8%
- viability, T/C [23]: 42%
- viability, T/C [24]: 24.2%
- viability, T/C [25]: 73.9%
- viability, T/C [26]: 69.7%
- viability, T/C [27]: 66.3%
- viability, T/C [28]: 78.8%
- viability, T/C [29]: 33.2%
- viability, T/C [30]: 20.8%
- viability, T/C [31]: 64.1%
- viability, T/C [32]: 65.6%
- viability, T/C [33]: 66.4%
- viability, T/C [34]: 60.4%
- viability, T/C [35]: 16.9%
- viability, T/C [36]: 15.5%

SMILES: Cc1nc(N2CCC3(CC2)COC(C)C3N)c(CO)nc1Sc1ccnc(N)c1Cl (stereo unspecified) + C#Cc1c(F)ccc2cc(O)cc(-c3ncc4c(N5CC6CCC(C5)N6)nc(OCC56CCCN5CC(F)C6)nc4c3F)c12
- IC50 (second compound 0.0316 µM): 2290 nM
- IC50 (second compound 0.1 µM): 2350 nM
- IC50 (second compound 0.316 µM): 827 nM
- IC50 (second compound 1 µM): 921 nM
- IC50 (second compound 3.16 µM): 400 nM
- IC50 (second compound 10 µM): 95.9 nM
- viability, T/C [1]: 92%
- viability, T/C [2]: 85.2%
- viability, T/C [3]: 79.8%
- viability, T/C [4]: 55.2%
- viability, T/C [5]: 51%
- viability, T/C [6]: 42.3%
- viability, T/C [7]: 98.4%
- viability, T/C [8]: 89.7%
- viability, T/C [9]: 71.8%
- viability, T/C [10]: 62.5%
- viability, T/C [11]: 45%
- viability, T/C [12]: 36.9%
- viability, T/C [13]: 89.2%
- viability, T/C [14]: 81.4%
- viability, T/C [15]: 47.3%
- viability, T/C [16]: 51.8%
- viability, T/C [17]: 45.2%
- viability, T/C [18]: 28.8%
- viability, T/C [19]: 80%
- viability, T/C [20]: 70.5%
- viability, T/C [21]: 58.9%
- viability, T/C [22]: 49.1%
- viability, T/C [23]: 39.4%
- viability, T/C [24]: 26.2%
- viability, T/C [25]: 66.1%
- viability, T/C [26]: 50.8%
- viability, T/C [27]: 54.3%
- viability, T/C [28]: 46.6%
- viability, T/C [29]: 33.6%
- viability, T/C [30]: 24%
- viability, T/C [31]: 61.1%
- viability, T/C [32]: 45.5%
- viability, T/C [33]: 44%
- viability, T/C [34]: 32.1%
- viability, T/C [35]: 22%
- viability, T/C [36]: 21.3%

SMILES: NC1c2ccccc2OC12CCN(c1cnc3c(N4CCCc5ncccc54)n[nH]c3n1)CC2 (stereo unspecified) + C#Cc1c(F)ccc2cc(O)cc(-c3ncc4c(N5CC6CCC(C5)N6)nc(OCC56CCCN5CC(F)C6)nc4c3F)c12
- IC50 (second compound 0.0316 µM): 363 nM
- IC50 (second compound 0.1 µM): 149 nM
- IC50 (second compound 0.316 µM): 157 nM
- IC50 (second compound 1 µM): 84.6 nM
- IC50 (second compound 3.16 µM): < 31.6 nM
- IC50 (second compound 10 µM): < 31.6 nM
- viability, T/C [1]: 58.8%
- viability, T/C [2]: 59.1%
- viability, T/C [3]: 50.1%
- viability, T/C [4]: 41.8%
- viability, T/C [5]: 35.2%
- viability, T/C [6]: 31.3%
- viability, T/C [7]: 65.7%
- viability, T/C [8]: 55.6%
- viability, T/C [9]: 43.8%
- viability, T/C [10]: 32.5%
- viability, T/C [11]: 36.8%
- viability, T/C [12]: 28.4%
- viability, T/C [13]: 63.6%
- viability, T/C [14]: 58.2%
- viability, T/C [15]: 38.2%
- viability, T/C [16]: 33%
- viability, T/C [17]: 26.6%
- viability, T/C [18]: 21%
- viability, T/C [19]: 54.3%
- viability, T/C [20]: 49.7%
- viability, T/C [21]: 32%
- viability, T/C [22]: 27.2%
- viability, T/C [23]: 27.7%
- viability, T/C [24]: 20.2%
- viability, T/C [25]: 51.2%
- viability, T/C [26]: 35.9%
- viability, T/C [27]: 35%
- viability, T/C [28]: 29.3%
- viability, T/C [29]: 26.6%
- viability, T/C [30]: 18.8%
- viability, T/C [31]: 39%
- viability, T/C [32]: 31%
- viability, T/C [33]: 24.1%
- viability, T/C [34]: 23.9%
- viability, T/C [35]: 18.6%
- viability, T/C [36]: 16.9%
